Measurements published in PubChem BioAssay AID1549 (Sanford-Burnham Center for Chemical Genomics, 2009).
The source made the active and inactive calls. The rule behind the calls is not given here.

What follows are compounds tested against Influenza A virus M2 proton channel (A/TW/4845/1999 H1N1) (assay: NMR binding screen, influenza A virus M2 proton channel, Kd (AID 1549)). Details: M2 protein.

Row | SMILES | Kd
1 | Cc1nnc(SCc2cccs2)[nH]c1=O | > 4 mM (inactive)
2 | CNS(=O)(=O)c1cc(OC)ccc1OC | > 4 mM (inactive)
3 | Nc1nc(-c2ccncc2)cs1 | > 4 mM (inactive)
4 | Cc1cc(C)nc(/N=C(/N)N2CCC(C(N)=O)CC2)n1 | > 4 mM (inactive)
5 | O=c1c(O)c(-c2ccc(O)cc2O)oc2cc(O)cc(O)c12 | > 4 mM (inactive)
6 | O=c1[nH]cc(N2CCCCC2)c(=O)[nH]1 | > 4 mM (inactive)
7 | COc1cc(O)c(C)c(O)c1 | > 4 mM (inactive)
8 | NC(=O)c1cc2c(n(-c3ccccc3)c1=O)CCCC2=O | > 4 mM (inactive)
9 | Cn1ncc(C(=O)NC2CCCCC2)c1Cl | > 4 mM (inactive)
10 | O=C(O)c1onc2ccccc12 | > 4 mM (inactive)
11 | CC(=O)NC(=S)Nc1nc2ccccc2n1C(C)=O | > 4 mM (inactive)
12 | N/N=C1\CCCc2c1no[n+]2[O-] | > 4 mM (inactive)
13 | CCC(=O)Nc1ccccc1NC(C)=O | > 4 mM (inactive)
14 | CN1CCN(c2ccc(C(=O)O)cc2)CC1 | > 4 mM (inactive)
15 | O=C1c2cccc3cc(S(=O)(=O)O)cc(c23)C(=O)N1O | > 4 mM (inactive)
16 | CCCCCCCCCCCCCCC(C(=O)O)C(O)(CC(=O)OC)C(=O)O (stereo not drawn) | > 4 mM (inactive)
17 | O=c1ccn(Cc2ccccc2)c(=O)[nH]1 | > 4 mM (inactive)
18 | COC(=O)C[C@@H]1C2(C)C(=O)[C@@H](CC3=C4CC(=O)O[C@@H](c5ccoc5)[C@]4(C)CCC32)[C@H](OC(C)=O)C1(C)C (stereo partly drawn) | > 4 mM (inactive)
19 | COc1cc(N)ncn1 | > 4 mM (inactive)
20 | CC(=O)Nc1nnc(-c2ccco2)o1 | > 4 mM (inactive)
21 | CC(C)=CCc1c2c(c3occ(-c4ccc(O)cc4)c(=O)c3c1O)C=CC(C)(C)O2 | > 4 mM (inactive)
22 | COc1c(O)cc2oc3cc(O)c(CC=C(C)C)c(O)c3c(=O)c2c1CC=C(C)C | > 4 mM (inactive)
23 | O=C(Nn1cnnc1)c1ccccc1-c1ccccc1 | > 4 mM (inactive)

Row | SMILES | Kd
24 | NC(=O)CC1Sc2ccccc2NC1=O (stereo not drawn) | > 4 mM (inactive)
25 | O=C1CSC(c2ccc3c(c2)OCO3)N1 (stereo not drawn) | > 4 mM (inactive)
26 | COC(=O)c1cccs1 | > 4 mM (inactive)
27 | Nc1cccc(-n2cnnn2)c1 | > 4 mM (inactive)
28 | C/C1=C\CCC(=O)C2CC(C)(C)C2CC1 (stereo not drawn) | > 4 mM (inactive)
29 | O=C(Nc1cccnc1)c1c(F)c(F)c(F)c(F)c1F | > 4 mM (inactive)
30 | Cc1noc(C)c1C(=O)N1CCC(Cc2ccccc2)CC1 | > 4 mM (inactive)
31 | O=C(CC1SC(=O)NC1=O)Nc1nccs1 (stereo not drawn) | > 4 mM (inactive)
32 | Cc1cc(C(=O)NCc2cccs2)cs1 | > 4 mM (inactive)
33 | CC(C)(C)Cc1nc(-c2ccccn2)no1 | > 4 mM (inactive)
34 | Cc1onc(-c2ccccc2)c1CO | > 4 mM (inactive)
35 | CC(=O)Nc1c(C#N)c(C(C)(C)C)cn1C | > 4 mM (inactive)
36 | COC(=O)c1ccccc1C | > 4 mM (inactive)
37 | COc1cc2c(cc1OC)C1Cc3ccc(OC)c(OC)c3CN1CC2 (stereo not drawn) | > 4 mM (inactive)
38 | Cc1oc(-c2ccccc2)cc1C(N)=O | > 4 mM (inactive)
39 | COCC(=O)Nc1ccc(F)cc1F | > 4 mM (inactive)
40 | NC(=S)N1CCC(c2ccccc2)=N1 | > 4 mM (inactive)
41 | C=CCn1c(N)c(C(=O)N2CCOCC2)sc1=S | > 4 mM (inactive)
42 | COc1ccc2c(c1OC)C(=O)O[C@@H]2[C@@H]1c2cc3c(cc2CCN1C)OCO3 | > 4 mM (inactive)
43 | COC(=O)c1c(OC)cc2c(c1C)Oc1c(Cl)c(OC(C)=O)c(Cl)c(C)c1C(=O)O2 | > 4 mM (inactive)
44 | N#Cc1nc(-c2cccs2)oc1N1CCOCC1 | > 4 mM (inactive)
45 | O=C(O)c1ccnn1-c1ccccc1 | > 4 mM (inactive)
46 | CN1CC(=O)N=C1N | > 4 mM (inactive)

Row | SMILES | Kd
47 | Nc1ccc2c(c1)C(=O)OC2 | > 4 mM (inactive)
48 | C=C1C2CC[C@@]3(C)[C@H](c4ccoc4)OC(=O)C[C@]13O[C@H]1CC(=O)C(C)(C)[C@H](C(OC(C)=O)C(=O)OC)[C@@]21C (stereo partly drawn) | > 4 mM (inactive)
49 | CC1(C)Cc2c(C#N)c(N)n(-c3ccccc3)c(=O)c2CO1 | > 4 mM (inactive)
50 | C[C@H]1O[C@@H](O[C@H]2[C@@H](O)C[C@H](O[C@H]3[C@@H](O)C[C@H](O[C@H]4CC[C@]5(C)C6CC[C@]7(C)[C@@H](C8=CC(=O)OC8)CC[C@]7(O)C6CC[C@@H]5C4)O[C@@H]3C)O[C@@H]2C)C[C@H](O)[C@@H]1O (stereo partly drawn) | > 4 mM (inactive)
51 | C[C@@H]1OC(O[C@H]2C(O[C@H]3CC[C@@]4(C)C(CC[C@]5(C)C4CC=C4C6CC(C)(C)CC[C@]6(C(=O)O)CC[C@]45C)[C@]3(C)CO)OC[C@H](O)[C@@H]2O)[C@H](O)[C@H](O)[C@H]1O (stereo partly drawn) | > 4 mM (inactive)
52 | CC(=O)c1cccc(NC(=O)N2CCc3ccccc3C2)c1 | > 4 mM (inactive)
53 | CCN1CCc2c(sc(N)c2C(N)=O)C1 | > 4 mM (inactive)
54 | O=C1CCCN1C(=O)c1ccc(F)cc1 | > 4 mM (inactive)
55 | CCCn1cnn2c(=O)cc(C)nc12 | > 4 mM (inactive)
56 | Oc1ccc(/C=C/c2cc(O)cc(O)c2)cc1 | > 4 mM (inactive)
57 | Cc1nnc(NCCCO)[nH]c1=O | > 4 mM (inactive)
58 | N[C@@H](Cc1cc(I)c(Oc2cc(I)c(O)c(I)c2)c(I)c1)C(=O)O | > 4 mM (inactive)
59 | CC(=O)NC(=S)Nc1ccc(C(C)=O)cc1 | > 4 mM (inactive)
60 | COC(=O)[C@H]1[C@H]2C[C@H]3c4[nH]c5ccccc5c4CCN3C[C@H]2CC[C@@H]1O | > 4 mM (inactive)
61 | CN(C)CCCN1CNC(=S)NC1 | > 4 mM (inactive)
62 | COC(=O)c1c[nH]c2ccccc12 | > 4 mM (inactive)
63 | CC(=O)Cc1nsc(NC(=O)c2ccc(C)cc2)n1 | > 4 mM (inactive)
64 | CN(C)S(=O)(=O)c1ccc(NC=O)cc1 | > 4 mM (inactive)
65 | N#CCc1nc2ccccc2s1 | > 4 mM (inactive)
66 | CC(=O)CC1(O)C(=O)Nc2ccc(Br)cc21 (stereo not drawn) | > 4 mM (inactive)
67 | CC(C)=CCC1=C(O)c2ccccc2C(=O)C1=O | > 4 mM (inactive)
68 | O=C1NC2NC(=O)N(c3ccccc3)C2N1 (stereo not drawn) | > 4 mM (inactive)
69 | O=C(c1cc2ccccc2o1)c1nc2c(n1O)CCCCC2 | > 4 mM (inactive)

Row | SMILES | Kd
70 | C=C1C(=O)O[C@@H]2C3OC3(C)CC/C=C(\C)CC[C@@H]12 (stereo partly drawn) | > 4 mM (inactive)
71 | NCc1oc(-c2ccccc2)cc1C(=O)O | > 4 mM (inactive)
72 | O/N=C1/CCCc2nonc21 | > 4 mM (inactive)
73 | Cn1c(O)c(/C=C2\C=CC=N2)c(=O)[nH]c1=S | > 4 mM (inactive)
74 | O=C(O)C1CSC2(CCCCC2)N1 (stereo not drawn) | > 4 mM (inactive)
75 | CN1CCN(CC(=O)N2CCc3ccccc32)CC1 | > 4 mM (inactive)
76 | CC(=O)Oc1c2c(c3c(c1CC=C(C)C)O[C@]14C(=C[C@@H]5CC1C(C)(C)OC4(C/C=C(\C)C(=O)O)C5=O)C3=O)OC(C)(CCC=C(C)C)C=C2 (stereo partly drawn) | > 4 mM (inactive)
77 | O=C1NC(=O)C(C(=S)Nc2ccccc2)C(=O)N1 | > 4 mM (inactive)
78 | CC(C)c1ccc2c(c1)CCC1[C@](C)(CN)CCC[C@]21C (stereo partly drawn) | > 4 mM (inactive)
79 | O=c1[nH]c2ccccc2c(=O)n1CCCO | > 4 mM (inactive)
80 | O=C(Nc1nncs1)Oc1ccccc1 | > 4 mM (inactive)
81 | COc1cc2c(cc1-c1coc3c4c(c(OC)cc3c1=O)OC(C)(C)C=C4)OCO2 | > 4 mM (inactive)
82 | CN(C)c1ccc(N2C(=O)CCC2=O)cc1 | > 4 mM (inactive)
83 | Cc1ccc(C)n1-c1ccc(C(=O)N2CCOCC2)cc1 | > 4 mM (inactive)
84 | c1ccc(CCc2nc(-c3ccccn3)no2)cc1 | > 4 mM (inactive)
85 | COC(=O)CSc1nc(N)cc(=O)[nH]1 | > 4 mM (inactive)
86 | O=C(O)C1CC(=O)N(Cc2cccs2)C1 (stereo not drawn) | > 4 mM (inactive)
87 | O=C1OCCC1Sc1nc2ccccc2c(=O)[nH]1 (stereo not drawn) | > 4 mM (inactive)
88 | CCOC(=O)c1sc(SC)c2c1CCCC2O (stereo not drawn) | > 4 mM (inactive)
89 | CC(=O)Nc1ccc(-c2cn3ccsc3n2)cc1 | > 4 mM (inactive)
90 | COc1ccc(NC(=O)N2CCCCC2)cc1 | > 4 mM (inactive)
91 | Cc1cc(C(=O)NC(C)c2ccncc2)no1 (stereo not drawn) | > 4 mM (inactive)
92 | NCc1ccc(-c2cccs2)s1 | > 4 mM (inactive)

Row | SMILES | Kd
93 | O=c1/c(=C/c2ccccc2F)sc2ncnn12 | > 4 mM (inactive)
94 | CS(=O)(=O)c1cccc(C(=O)Nc2nccs2)c1 | > 4 mM (inactive)
95 | CC(C)NC(=O)c1cc(-n2cnnc2)ccc1Cl | > 4 mM (inactive)
96 | CC1(C)CC[C@]2(C(=O)O)CC[C@]3(C)C(=CCC4[C@@]5(C)CC[C@H](O)[C@@](C)(CO)C5CC[C@]43C)C2C1 (stereo partly drawn) | > 4 mM (inactive)
97 | O=S(=O)(Cc1ccccc1)N1CCCCCC1 | > 4 mM (inactive)
98 | Nc1cc(=O)[nH]c(=O)n1Cc1ccco1 | > 4 mM (inactive)
99 | Nc1cc(=O)[nH]c(SCC(=O)Nc2nccs2)n1 | > 4 mM (inactive)
100 | CC(C)(O)CC[C@@H](O)[C@](C)(O)C1CC[C@@]2(O)C3=CC(=O)C4C[C@@H](O)[C@@H](O)C[C@]4(C)C3CC[C@]12C (stereo partly drawn) | > 4 mM (inactive)
101 | Nc1ncnc(NCCCO)c1[N+](=O)[O-] | > 4 mM (inactive)
102 | COc1cnn(-c2ccccc2)c(=O)c1N(C)C | > 4 mM (inactive)
103 | Cc1cc(C(=O)NN2CCOCC2)c(C)o1 | > 4 mM (inactive)
104 | CC(=O)Nc1c(Cl)cnn(-c2ccccc2)c1=O | > 4 mM (inactive)
105 | CN(C(=O)c1cc2cccnc2n(C)c1=O)c1ccccc1 | > 4 mM (inactive)
106 | O=C(O)c1ccc2[nH]c3c(c2c1)CSCC3 | > 4 mM (inactive)
107 | COc1cc2c3cc1Oc1c(OC)c(OC)cc4c1[C@@H](Cc1cccc(c1)Oc1ccc(c(O)c1)C[C@@H]3N(C)CC2)N(C)CC4 | > 4 mM (inactive)
108 | c1cncc(C(N2CCOCC2)N2CCOCC2)c1 | > 4 mM (inactive)
109 | COCC(=O)Nc1nc2ccc(C)cc2s1 | > 4 mM (inactive)
110 | COc1ccc2c(c1)OC/C(=C/c1ccc(O)c(O)c1)C2=O | > 4 mM (inactive)
111 | O=C(O)c1cc(F)cc2c1OCOC2 | > 4 mM (inactive)
112 | COc1cccc(Oc2ccc(N)cn2)c1 | > 4 mM (inactive)
113 | Cc1c(N=CN(C)C)c(=O)n(-c2ccccc2)n1C | > 4 mM (inactive)
